Test results taken from publication PMC12498288 (Frontiers in Immunology, 2025).
Values joined by “and” are separate entries in the source; they are usually repeats but may differ in a detail not shown here. Identical values can stand only once. Like-named read-outs stand apart in the source and are kept apart here.

Columns and labels:
[1] = tested on: SARS-CoV-2 (BetaCoV/Munich/BavPat1/2020)
[2] = Pharmacokinetics after a single oral dose in Syrian hamsters (serum, HPLC-MS/MS); format: in vivo; conditions: for C(24 h): mean concentration at 24 h; for Cmax / AUC / Tmax / half-life: po
Text: Zapnometinib was synthesized by Chemcon GmbH (Freiburg, Germany). Before administration to Syrian hamsters, it was freshly dissolved in dimethyl sulfoxide (DMSO) (Carl Roth GmbH, Karlsruhe, Germany) and then further dissolved in 15% Kolliphor EL (Sigma-Aldrich, Germany) and 80% phosphate-buffered saline (PBS) (Gibco, Life Technology Europe B.V., Bleiswijk, the Netherlands). Kolliphor EL is used to emulsify and solubilize oils and other water in-soluble substances, it has been used as a pharmaceutical solvent for numerous drugs and has proven in previous in vivo studies with zapnometinib. Zapnometinib was administered orally at the indicated doses in a volume of 500 μL/150 g body weight using a gavage needle.
Drug administration and blood sampling in Syrian hamsters were performed by Viroclinics Xplore (Schaijk, the Netherlands) and are described in the sections “Drug administration” and “Sampling after inoculation”. Specifically, at different time points (0, 0.5, 1, 2, 4, 8, 12, and 24 h) after the administration of a single dose of zapnometinib (15, 30, or 60 mg/kg per oral (p.o.)), ~200 µL blood was collected retro-orbitally from three animals per time point per dose and alternating animals between time points (except at 24 h, n = 6 per group) under isoflurane anesthesia using a heparinized capillary tube containing a clot activator (Microvette 500 Z-Gel, Sarstedt). Serum was collected by centrifuging the tubes at 4000 x g for 10 min, aliquoted, and stored at < -70°C until pharmacokinetic analysis. Daily clinical observations included monitoring of signs such as ruffled fur, hunched back posture, accelerated breathing and lethargy, and the body weight was monitored before and 24 h post administration.
Bioanalysis and pharmacokinetic evaluation were performed at Prolytic GmbH (Frankfurt, Germany). […] liquid chromatography tandem mass spectrometry (HPLC-MS/MS) was employed to determine the concentration of zapnometinib in hamster serum in accordance with the company’s SOPs. During the analytical phase, two batches were evaluated. The acceptance criteria for the calibration standards and quality control (QC) samples were fulfilled for both batches as per the company’s SOPs. […] In total, 81 study test samples were analyzed. The validity of the method during the analysis of the test samples was ensured by assaying QC samples with known concentrations of zapnometinib; zapnometinib 13C6 was used as the internal standard. The lower limit of quantification (LLOQ) of the method was determined to be 10 ng/mL for zapnometinib in undiluted serum. All serum concentrations falling below LLOQ were assigned a value of 0. ANALYST software was used to calculate the concentrations of the test and QC samples based on the corresponding calibration curves. The obtained mean serum concentrations were used for noncompartmental pharmacokinetic evaluation with Phoenix® WinNonLin software (Pharsight Corporation, Mountain View, CA, USA; version 8.1).

[3] = tested on: cytokine and chemokine levels; assay: Cytokine and chemokine levels in SARS-CoV-2-infected Syrian hamsters (serum ELISA, lung RT-qPCR); format: in vivo; conditions: 4 dpi, between groups after infection and treatment
Procedure: Eleven- to thirteen-week-old male Syrian hamsters (Janvier, France) with a body weight of 113-148 g were infected on day 0 intranasally with SARS-CoV-2 (1x10^3 median tissue culture infectious dose (TCID50) BetaCoV/Munich/BavPat1/2020) in a total volume of 0.1 mL PBS divided between the nostrils. Zapnometinib (100 mg/kg) was administered p.o. at 4 or 24 h p.i. and the animals in both groups were treated thereafter with 75 mg/kg zapnometinib once daily. The animals in the control group received vehicle (5% DMSO, 15% Kolliphor, 80% PBS) 4 h p.i. and thereafter once daily. Serum samples were collected from hamsters before infection (0 dpi) and at 4 dpi, and the levels of different cytokines and chemokines (IL1-β, TNF-α, IL-6, and IP-10) were analyzed by ELISA (Assay Genie, Ireland). […] Tetramethylbenzidine (TMB) substrate was added and the color change in the wells was used as readout for the ELISA. The optical density (OD) at 450 nm was read. Cytokine and chemokine concentrations were calculated following the manufacturer’s instructions for interpolating unknown concentrations from a standard curve.
Supplementary Figure 3. […] A. Cytokine levels in serum samples collected at 0 dpi (before infection and treatment, bottom row) and 4 dpi (top row) from vehicle-treated and zapnometinib-treated Syrian hamsters from the efficacy study analyzed by ELISA are shown. […]

[4] = Syrian, hamster, serum, 15 mg/kg p.o. single dose
[5] = Syrian, hamster, serum, 30 mg/kg p.o. single dose
[6] = hamster, serum, 60 mg/kg p.o. single dose
[7] = single doses of 15, 30 or 60 mg/kg p.o.

O=C(O)c1ccc(F)c(F)c1Nc1ccc(I)cc1Cl [zapnometinib]
tolerability ([1]; 100 mg/kg then 75 mg/kg daily p.o., both groups): well tolerated
viral titers in nasal turbinates ([1]; […], did not reach statistical significance): trend toward lower mean viral titers
lung inflammation (infiltrating inflammatory cells, consolidation, decreased air containing space) ([1]; hamster, in vivo): less severe
mean body weight loss ([1]; hamster, in vivo): 8-11%
mean viral titer in throat swabs ([1]; hamster, in vivo): still lower in the throat swabs of drug-treated animals, although no statistically significant differences
percentage of lung injury in lung tissue (gross pathology) ([1]; hamster, in vivo): significantly reduced
reduction in replication-competent virus in throat swabs (TCID50 assay) ([1]; hamster, in vivo): 1.1 log10 and 1.3 log10
reduction of infectious viral titer in nasal turbinates (TCID50 assay) ([1]; hamster, in vivo): 1.3 log10
reduction of viral load in nasal turbinates (RT-qPCR) ([1]; hamster, in vivo): 1.1 log10
viral load in throat swabs ([1]; hamster, in vivo): comparable
viral titer reduction (number of viral copies) in throat swabs (RT-qPCR) ([1]; hamster, in vivo): 1.1 log10 and 1.2 log10
treatment-related adverse effects ([1]; zapnometinib-treated groups vs vehicle-treated group): no treatment-related adverse effects were observed
C(24 h) ([2]; 15 mg/kg p.o. single dose): 0.26 µM
C(24 h) ([2]; 30 mg/kg p.o. single dose): 0.55 µM
Cmax ([2]; Syrian, hamster, 15 mg/kg p.o. single dose, serum): 85100 ng/mL and 34.8 µM
Cmax ([2]; Syrian, hamster, 30 mg/kg p.o. single dose, serum): 53.9 µM
concentration at 24 h ([2]; Syrian, hamster, serum, oral, 60 mg/kg p.o. single dose, read-out: concentration of zapnometinib after 24 h): 5320 ng/mL and 13 µM
AUC [2, 4]: 672 µg·h/mL
Tmax [2, 4]: 2 h
half-life ([2]; Syrian, hamster, serum, 15 mg/kg p.o. single dose, read-out: T1/2 (converted)): 2.74 h
AUC [2, 5]: 1230 µg·h/mL
Tmax [2, 5]: 2 h
half-life ([2]; Syrian, hamster, serum, 30 mg/kg p.o. single dose, read-out: T1/2 (converted)): 2.75 h
half-life ([2]; Syrian, hamster, serum, all dose groups (15, 30, 60 mg/kg p.o.), read-out: apparent terminal half-life): 2 to 3 h
Cmax ([2]; hamster, 30 mg/kg p.o. single dose, serum): 132 µg/mL
Cmax ([2]; hamster, 60 mg/kg p.o. single dose, serum): 242000 ng/mL and 99.2 µM
AUC [2, 6]: 2970 µg·h/mL
Tmax [2, 6]: 4 h
half-life ([2]; hamster, serum, 60 mg/kg p.o. single dose, read-out: T1/2 (converted)): 3.07 h
adverse events [2, 7]: no adverse events were reported
tolerability [2, 7]: well tolerated
cytokine and chemokine levels in serum (ELISA) and lung tissue (RT-qPCR) [3]: no major differences
